These results are taken from PMC8623398, “Investigation of the Mechanisms of Cytotoxic Activity of 1,3-Disubstituted Thiourea Derivatives” (Pharmaceuticals, 2021).

Data set [1] deals with SW620 cells. The data set can be described thus: MTT assay, SW620. It counts as cell-based, human. As to conditions: 50% growth inhibition. The method, then:
(§1) As a first step in assessing their cytotoxic properties, all thioureas of the series were assayed against four human carcinoma cell lines, such as SW480 (primary colon cancer), SW620 (metastatic colon cancer), PC3 (metastatic prostate cancer), and K-562 (chronic myelogenous leukemia), as well as against the normal cell line HaCaT (immortalized human keratinocytes). Table 1 lists the compound concentrations that produced 50% of growth inhibition (IC50, μM), generated by the MTT method, in comparison with two commonly used chemotherapeutic agents, doxorubicin and cisplatin.
(§2) The human primary (SW480), metastatic (SW620) colon cancer, metastatic prostate cancer (PC3), chronic myelogenous leukemia (K-562), and human immortal keratinocyte (HaCaT) cell lines were purchased from the American Type Culture Collection (ATCC, Rockville, MD, USA). The cells were cultured in medium according to protocols (MEM for SW480 and SW620, RPMI 1640 for PC3 and K-562, and DMEM for HaCaT cells), supplemented with 10% FBS, penicillin (100 U/mL) and streptomycin (100 μg/mL), and cultured in a 37 °C/5% CO2 humidified incubator. The cells were cultured until appropriate confluence was achieved (80–90%). Next, they were harvested by treatment with 0.25% trypsin (Gibco Life Technologies, Waltham, MA, USA) excluding the non-adherent K-562 cell line and used for studies.
(§3) Cells without the studied compounds in medium were used as a control.
(§4) The cell viability was assessed by determination of MTT salt [3-(4,5-dimethylthiazol-2-yl)-2,5-diphenyltetrazoliumbromide] conversion by mitochondrial dehydrogenase. The MTT assay was performed as previously described. Alternatively, non-adherent leukemic cells were centrifuged in a microplate centrifuge (400× g, 5 min) during the collection stages. Experiments were repeated three times. Cell viability was presented as a percent of MTT reduction in the treated cells versus the control cells. The number of viable cells cultured without the studied compounds was assumed as 100%. A decreased relative MTT level indicated decreased cell viability. Thiourea compounds with the highest cytotoxic potential assessed by MTT determination (with the lowest IC50) were chosen for subsequent assessments of cytotoxicity mechanisms.

For data set [2], the system named is HaCaT cells. The data set can be described thus: MTT assay, HaCaT normal cells. The following applies: 72 h. Type of data set: cell-based, human. The method, then: as §1, §2, §3, §4
Data set [3] relates to SW480 cells. The data set can be described thus: MTT assay, SW480. Type of data set: cell-based, human. The following applies: 50% growth inhibition. On the procedure:
as §1, §2, §3, §4
(Tetrazolium dyes change colour on reduction, which living cells bring about.)

The subject of data set [4] is K-562 cells. The data set is described as follows: MTT assay, K562. It counts as cell-based, human. As to conditions: 50% growth inhibition. On the procedure:
as §1, §2, §3, §4

The test system of data set [5] is PC3 cells. The data set is described as follows: MTT assay, PC3. Type of data set: cell-based. As to conditions: Homo sapiens, PC-3, 72 h, 50% growth inhibition. On the procedure: as §1, §2, §3, §4
Data set [6] deals with SW480, SW620, PC3, K-562 cells. The data set can be described thus: MTT assay, summary over cancer cell lines. The following applies: Homo sapiens, 72 h, depending on the tumor line, read-out: IC50 (range or bound over cancer cell lines). It counts as cell-based. On the procedure:
as §1, §3, §4

Compound `FC(F)(F)c1cccc(NC(=S)Nc2ccccc2C(F)(F)F)c1` [Compound 7, 1-[2-(trifluoromethyl)phenyl]-3-[3-(trifluoromethyl)phenyl]thiourea] had a melting point of 173 to 175 °C. This compound also registered an IC50 in data set [1] (Homo sapiens, SW-620, 72 h) of 30.1 ± 9.74 µM. In data set [2] (Homo sapiens, HaCaT), half-maximal inhibition (IC50) required 65.7 ± 3.83 µM. In data set [3] (Homo sapiens, SW480, 72 h), this compound displayed an IC50 of over 100 µM. Besides, the IC50 in data set [4] (Homo sapiens, K562, 72 h) turned out to be 76.5 ± 4.57 µM. Besides, the IC50 in data set [5] came out at 17.1 ± 0.57 µM.
`Cc1c(Cl)cccc1NC(=S)Nc1cccc(C(F)(F)F)c1` [Compound 5, 1-(3-chloro-2-methylphenyl)-3-[3-(trifluoromethyl)phenyl]thiourea] yielded a melting point of 163 to 165 °C. The same compound gave an IC50 in data set [1] (Homo sapiens, SW-620, 72 h) of 23.2 ± 4.07 µM. This compound also had an IC50 in data set [2] (Homo sapiens, HaCaT) of 55.6 ± 1.74 µM. In data set [3] (Homo sapiens, SW480, 72 h), the 50% inhibitory concentration (IC50) was determined as 7.3 ± 0.89 µM. Moreover, in data set [6], the half-maximal inhibitory concentration (IC50) is at most 10 µM. In addition, the IC50 in data set [4] (Homo sapiens, K562, 72 h) was 52.5 ± 2.14 µM. The compound further showed an IC50 in data set [5] of 51.8 ± 3.19 µM.
Regarding `FC(F)(F)c1cccc(NC(=S)NCCc2ccccc2)c1` [Compound 12, 1-(2-phenylethyl)-3-[3-(trifluoromethyl)-phenyl]thiourea], the 50% inhibitory concentration (IC50) in data set [1] (Homo sapiens, SW-620, 72 h) is 38.2 ± 3.1 µM; in data set [2] (Homo sapiens, HaCaT), 55.4 ± 1.08 µM; in data set [3] (Homo sapiens, SW480, 72 h) it was 25.3 ± 8.53 µM; in data set [6], 23.8 to 38.2 µM; in data set [4] (Homo sapiens, K562, 72 h), 23.8 ± 0.45 µM; in data set [5] it was 26.7 ± 3.95 µM.
Take `N#Cc1ccc(NC(=S)Nc2cccc(C(F)(F)F)c2)cc1` [Compound 10, 1-(4-cyanophenyl)-3-[3-(trifluoromethyl)-phenyl]thiourea]: the IC50 is 18.7 ± 5.92 µM in data set [1] (Homo sapiens, SW-620, 72 h); 50.1 ± 4.89 µM in data set [2] (Homo sapiens, HaCaT); 20.6 ± 3.59 µM in data set [3] (Homo sapiens, SW480, 72 h); 12.9 ± 4.33 µM in data set [4] (72 h); 10.2 to 12.9 µM in data set [4] (Homo sapiens, K562, 72 h); 66.2 ± 4.47 µM in data set [5].
As for `N.N.[Cl][Pt][Cl]` [Cisplatin, reference compound], the IC50 in data set [1] (72 h) came to 6.7 ± 1.1 µM; in data set [2] it was 6.3 ± 0.7 µM; in data set [3] (72 h), 10.4 ± 0.9 µM; in data set [4] (72 h) it was 8.2 ± 4.08 µM.
Take `COc1cccc2c1C(=O)c1c(O)c3c(c(O)c1C2=O)C[C@@](O)(C(=O)CO)C[C@@H]3O[C@H]1C[C@H](N)[C@H](O)[C@H](C)O1` [Doxorubicin, reference compound]: the 50% inhibitory concentration (IC50) in data set [1] (Homo sapiens, SW-620, 72 h) worked out at 0.3 ± 0.08 µM; in data set [2] (Homo sapiens, HaCaT) it was 0.3 ± 0.11 µM; in data set [3] (Homo sapiens, SW480, 72 h) it was 0.8 ± 0.1 µM; in data set [4] (Homo sapiens, K562, 72 h) it was 0.2 ± 0.1 µM; in data set [5], 0.3 ± 0.12 µM.
On the same counts, the results for `FC(F)(F)c1cccc(NC(=S)Nc2ccc(Br)cc2)c1` [Compound 11, 1-(4-bromophenyl)-3-[3-(trifluoromethyl)phenyl]thiourea] are 16.2 ± 4.08 µM, 17.2 ± 0.64 µM, 41.5 ± 4.46 µM, 74.2 ± 6.82 µM and 76.6 ± 4.7 µM.
Regarding `FC(F)(F)c1cccc(NC(=S)Nc2cccc(Cl)c2Cl)c1` [Compound 4, 1-(2,3-dichlorophenyl)-3-[3-(trifluoromethyl)phenyl]thiourea], the IC50 was 14 ± 1.73 µM in data set [1] (Homo sapiens, SW-620, 72 h); 13.9 ± 1.7 µM in data set [2] (Homo sapiens, HaCaT); 22.5 ± 0.1 µM in data set [3] (Homo sapiens, SW480, 72 h); at most 10 µM in data set [6]; 35.9 ± 0.07 µM in data set [4] (Homo sapiens, K562, 72 h); 10.5 ± 2.52 µM in data set [5].
Consider `Cc1ccc(Cl)cc1NC(=S)Nc1cccc(C(F)(F)F)c1` [Compound 6, 1-(5-chloro-2-methylphenyl)-3-[3-(trifluoromethyl)phenyl]thiourea], for which the concentration for half-maximal inhibition (IC50) in data set [1] (Homo sapiens, SW-620, 72 h) was 22.1 ± 4.36 µM; in data set [2] (Homo sapiens, HaCaT), 14.5 ± 1.08 µM; in data set [3] (72 h), 15.6 ± 4.1 µM; in data set [3] (Homo sapiens, SW480, 72 h) it was 12.7 to 15.6 µM; in data set [4] (Homo sapiens, K562, 72 h) it was 40.3 ± 3.88 µM; in data set [5], 65.9 ± 10.5 µM.

In general, melting point refers to the temperature of the solid-liquid transition. The IC50 is the point on the concentration scale where inhibition reaches its midpoint.
